Laboratory results taken from ChEMBL document CHEMBL1201862, “PubChem BioAssay data set” (2004).
Active and inactive are the calls of the source.

Experiments:
Insulin-degrading enzyme [1] = target: T1, Insulin-degrading enzyme (Homo sapiens, UniProt P14735); experiment: activators of endogenous IDE in HEK cells, dose response, cell-based, fluorescence polarization (AID 588439); assay type: functional
T1 sequence (P14735 whole entry): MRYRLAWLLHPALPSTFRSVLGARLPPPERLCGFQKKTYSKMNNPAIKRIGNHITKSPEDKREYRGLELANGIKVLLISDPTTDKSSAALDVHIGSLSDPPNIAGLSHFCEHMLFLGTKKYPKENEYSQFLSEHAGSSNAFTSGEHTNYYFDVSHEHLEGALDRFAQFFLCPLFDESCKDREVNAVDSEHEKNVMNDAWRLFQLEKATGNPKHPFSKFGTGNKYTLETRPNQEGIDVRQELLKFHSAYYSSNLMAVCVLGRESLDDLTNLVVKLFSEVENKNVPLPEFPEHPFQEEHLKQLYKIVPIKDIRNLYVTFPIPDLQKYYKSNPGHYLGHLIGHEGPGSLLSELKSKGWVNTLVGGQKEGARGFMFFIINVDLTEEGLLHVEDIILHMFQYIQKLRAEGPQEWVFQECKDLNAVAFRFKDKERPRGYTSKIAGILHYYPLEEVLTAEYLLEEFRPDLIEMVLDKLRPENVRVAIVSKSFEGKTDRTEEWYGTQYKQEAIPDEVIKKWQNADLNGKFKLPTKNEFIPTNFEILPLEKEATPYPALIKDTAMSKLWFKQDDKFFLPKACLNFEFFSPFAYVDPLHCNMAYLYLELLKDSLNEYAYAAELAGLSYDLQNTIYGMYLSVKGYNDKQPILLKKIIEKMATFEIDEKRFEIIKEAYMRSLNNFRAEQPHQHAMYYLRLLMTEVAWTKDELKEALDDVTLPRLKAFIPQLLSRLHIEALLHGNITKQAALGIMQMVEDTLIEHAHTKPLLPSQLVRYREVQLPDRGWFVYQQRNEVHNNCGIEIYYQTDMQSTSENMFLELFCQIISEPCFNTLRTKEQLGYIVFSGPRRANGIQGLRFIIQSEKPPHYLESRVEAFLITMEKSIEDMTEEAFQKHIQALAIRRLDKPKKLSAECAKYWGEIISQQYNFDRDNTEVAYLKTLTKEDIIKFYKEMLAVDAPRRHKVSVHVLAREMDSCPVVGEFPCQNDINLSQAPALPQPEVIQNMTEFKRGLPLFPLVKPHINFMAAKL

Insulin-degrading enzyme [2] = target: T1, Insulin-degrading enzyme; experiment: activators of recombinant IDE enzyme, dose response, counter-screen for IDE activator project, biochemical, fluorescence polarization (AID 588681)
HEK293 [3] = experiment: HEK cell cytotoxicity by LDH release, dose response, cytotoxicity control for IDE activator project, fluorescence, HEK cells (AID 588440); assay type: functional, cell-based; conditions: Homo sapiens;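 note: cytotoxicity by LDH release measuring loss of membrane integrity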
HEK293 [4] = experiment: optical interference in Abeta FP readout, dose response, artefact control for IDE activator project, biochemical, fluorescence polarization (AID 588442); assay type: functional, cell-based; conditions: Homo sapiens
Bcl-2-like protein 10 = target: T2, Bcl-2-like protein 10 (Homo sapiens, UniProt Q9HD36); experiment: displacers of TR3 peptide from Bcl-B, primary screen, selectivity assay for Bfl-1 inhibitor project, biochemical, fluorescence polarization, FITC-TR3 peptide (AID 748);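 note: fluorescence polarization from a fluorescein-labelled TR3 peptide binding purified Bcl-B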
T2 sequence (Q9HD36 whole entry): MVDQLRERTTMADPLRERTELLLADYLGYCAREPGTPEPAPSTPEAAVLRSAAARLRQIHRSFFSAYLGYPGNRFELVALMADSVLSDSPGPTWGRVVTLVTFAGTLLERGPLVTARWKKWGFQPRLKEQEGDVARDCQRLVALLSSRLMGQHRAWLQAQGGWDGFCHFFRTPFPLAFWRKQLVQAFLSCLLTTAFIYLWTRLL

[5] = inhibitors of clade B AD8 Env fusion, dose response, cell-based, cherry-pick (AID 652062); assay type: functional;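 note: luciferase signal from cell-cell fusion driven by HIV-1 clade B AD8 Env; potency is for inhibitors of fusion seen as a drop in luminescence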
Paired box protein Pax-8 = Paired box protein Pax-8 (Homo sapiens, UniProt Q06710); experiment: inhibitors of PAX8-driven TPO luciferase reporter, dose response, RMG-I cells, cherry-pick (AID 687027); assay type: functional, cell-based;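 note: luciferase reporter driven by Pax8 target thyroperoxidase promoter measured by SteadyGlo luminescence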
Chain of Paired box protein Pax-8 (Q06710 whole entry): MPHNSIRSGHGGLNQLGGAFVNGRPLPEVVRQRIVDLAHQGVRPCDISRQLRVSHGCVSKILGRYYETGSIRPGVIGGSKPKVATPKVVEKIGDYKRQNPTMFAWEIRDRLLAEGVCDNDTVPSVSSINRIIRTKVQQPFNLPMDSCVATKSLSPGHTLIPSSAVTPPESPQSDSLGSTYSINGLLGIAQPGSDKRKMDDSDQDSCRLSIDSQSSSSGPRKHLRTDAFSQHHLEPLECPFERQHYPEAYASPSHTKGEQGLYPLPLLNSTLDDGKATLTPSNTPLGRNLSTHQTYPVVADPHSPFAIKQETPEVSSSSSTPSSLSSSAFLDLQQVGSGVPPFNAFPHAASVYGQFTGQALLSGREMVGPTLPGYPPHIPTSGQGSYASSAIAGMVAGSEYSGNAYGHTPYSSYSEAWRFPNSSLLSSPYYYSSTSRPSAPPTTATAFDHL

[6] = NIH:OVCAR-3 ovarian cancer cell cytotoxicity, dose response, PAX8 inhibitor project, plate reader, dry powder samples (AID 743044); assay type: functional, cell-based
[7] = ZM109 Env clade C HIV-1 fusion inhibitors, dose response, HeLa effector, CEM target cells, luciferase, cherry-pick (AID 652058); assay type: functional, cell-based
[8] = inhibitors of HIV Env-driven cell fusion, dose response, cherry-pick (AID 652057); assay type: functional, cell-based
[9] = target: Eukaryotic translation initiation factor 4E (Mus musculus, UniProt P63073); experiment: eIF4E–eIF4G protein interaction inhibitors, dose response, biochemical, TR-FRET (AID 855); assay type: functional;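 note: potency for disrupting eIF4E binding to eIF4GI seen as loss of FRET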
Chain of Eukaryotic translation initiation factor 4E (P63073 whole entry): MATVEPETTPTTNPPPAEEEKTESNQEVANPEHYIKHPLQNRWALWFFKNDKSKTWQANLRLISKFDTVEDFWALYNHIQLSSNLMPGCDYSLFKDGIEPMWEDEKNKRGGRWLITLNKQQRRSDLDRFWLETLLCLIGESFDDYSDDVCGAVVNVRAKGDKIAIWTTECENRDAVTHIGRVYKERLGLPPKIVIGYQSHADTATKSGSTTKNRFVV

[10] = target: T3, Corticotropin-releasing factor receptor 2/Corticotropin-releasing factor-binding protein (Homo sapiens, UniProt P24387+Q13324); experiment: Dose Response confirmation of uHTS hits for small molecule antagonists of the CRF-binding protein and CRF-R2 receptor complex.; assay type: functional; conditions: read-out: IC50_Mean
T3 sequence (Q13324 whole entry): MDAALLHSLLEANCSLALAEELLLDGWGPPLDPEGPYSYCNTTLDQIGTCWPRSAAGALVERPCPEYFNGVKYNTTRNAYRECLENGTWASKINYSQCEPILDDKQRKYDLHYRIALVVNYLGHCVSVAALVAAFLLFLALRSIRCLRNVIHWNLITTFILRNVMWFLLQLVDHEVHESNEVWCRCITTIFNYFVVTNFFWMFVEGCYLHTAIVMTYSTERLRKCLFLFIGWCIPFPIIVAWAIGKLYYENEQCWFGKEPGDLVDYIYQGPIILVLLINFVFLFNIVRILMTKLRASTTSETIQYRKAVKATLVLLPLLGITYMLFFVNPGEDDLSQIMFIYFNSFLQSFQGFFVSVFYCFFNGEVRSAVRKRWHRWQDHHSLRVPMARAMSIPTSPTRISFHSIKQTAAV
T3 sequence (P24387 whole entry): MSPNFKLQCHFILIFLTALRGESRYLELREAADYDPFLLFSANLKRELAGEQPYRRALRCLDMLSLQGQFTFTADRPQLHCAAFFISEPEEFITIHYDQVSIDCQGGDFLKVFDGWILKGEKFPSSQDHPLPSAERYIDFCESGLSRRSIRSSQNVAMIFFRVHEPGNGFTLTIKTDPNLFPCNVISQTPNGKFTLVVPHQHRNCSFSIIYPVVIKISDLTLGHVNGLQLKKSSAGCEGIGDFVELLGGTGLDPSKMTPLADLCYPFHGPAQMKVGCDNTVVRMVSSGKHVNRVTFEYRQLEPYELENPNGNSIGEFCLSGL

[11] = CRF-BP/CRF-R2 complex antagonists, dose response, cell-based, uHTS hits, 384-well (AID 651639); assay type: functional, Homo sapiens; conditions: read-out: IC50_Mean
[12] = target: T3, Corticotropin-releasing factor receptor 2/Corticotropin-releasing factor-binding protein; experiment: activators of CRF receptor 2 with binding protein – uHTS hits, confirmation (AID 602473); assay type: functional; conditions: read-out: EC50_Mean
[13] = target: Induced myeloid leukemia cell differentiation protein Mcl-1 (Homo sapiens, UniProt Q07820); assay type: functional
Chain of Induced myeloid leukemia cell differentiation protein Mcl-1 (Q07820 whole entry): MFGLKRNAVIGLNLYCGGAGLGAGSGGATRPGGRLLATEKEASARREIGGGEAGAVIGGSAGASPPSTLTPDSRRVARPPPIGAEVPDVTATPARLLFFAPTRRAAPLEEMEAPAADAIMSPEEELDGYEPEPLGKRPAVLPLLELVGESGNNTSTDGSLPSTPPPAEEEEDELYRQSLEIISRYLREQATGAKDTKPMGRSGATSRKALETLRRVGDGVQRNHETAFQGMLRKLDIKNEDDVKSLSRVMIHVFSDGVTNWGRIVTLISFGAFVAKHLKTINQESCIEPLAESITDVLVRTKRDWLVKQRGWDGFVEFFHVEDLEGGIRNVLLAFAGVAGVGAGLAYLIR

[14] = target: T4, DNA repair protein RAD52 homolog (Homo sapiens, UniProt P43351); assay type: functional, biochemical
T4 sequence (P43351 whole entry): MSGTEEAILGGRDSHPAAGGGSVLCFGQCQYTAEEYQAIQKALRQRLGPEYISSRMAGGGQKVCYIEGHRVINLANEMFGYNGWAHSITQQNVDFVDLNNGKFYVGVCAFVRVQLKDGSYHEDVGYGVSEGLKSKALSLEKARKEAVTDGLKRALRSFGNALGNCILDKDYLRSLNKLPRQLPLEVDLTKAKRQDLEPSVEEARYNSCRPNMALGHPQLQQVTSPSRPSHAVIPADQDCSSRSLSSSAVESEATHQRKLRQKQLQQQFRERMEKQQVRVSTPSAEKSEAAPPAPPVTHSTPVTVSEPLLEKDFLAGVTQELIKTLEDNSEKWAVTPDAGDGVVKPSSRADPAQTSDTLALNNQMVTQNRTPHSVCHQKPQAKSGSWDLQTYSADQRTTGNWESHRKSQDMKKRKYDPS

[15] = target: T5, Ubiquitin-conjugating enzyme E2 N (Homo sapiens, UniProt P61088); assay type: functional;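 note: Dose-response confirmation in a TR-FRET assay detecting UBC13-driven polyubiquitin chain formation, inhibition measured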
T5 sequence (P61088 whole entry): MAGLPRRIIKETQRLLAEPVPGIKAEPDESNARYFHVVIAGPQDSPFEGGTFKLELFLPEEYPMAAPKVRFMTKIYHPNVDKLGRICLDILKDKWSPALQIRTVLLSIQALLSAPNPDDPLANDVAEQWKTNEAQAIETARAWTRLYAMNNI

Prothrombin = Prothrombin (Homo sapiens, UniProt P00734); experiment: Thrombin 1536 HTS Dose Response Confirmation. [Related pubchem assays: 1046 (Thrombin 1536 HTS; hits were confirmed in this assay)]; assay type: functional
[16] = Vero E6 cell cytotoxicity, dose response, cytotoxicity control for non-replicating M. tuberculosis project, secondary assay (AID 492998); assay type: functional, VeroE6; conditions: Vero C1008
INS1 = experiment: beta cell apoptosis inhibitors, cytokine rescue, dose response, luminescence, retest (AID 449756); assay type: functional, cell-based; conditions: Rattus norvegicus;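 note: cell death triggered by IL-1 beta plus TNF-alpha plus IFN-gamma mixture; protective hits raise ATP signal compared with cytokine alone wells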
cells = assay type: functional
[17] = THP-1 cell cytotoxicity, dose response, cytotoxicity control for non-replicating M. tuberculosis project (AID 489025); assay type: functional
[18] = non-specific cell cytotoxicity, dose response, cytotoxicity control for PAX8 inhibitor project, plate reader, dry powder samples (AID 743021); assay type: functional, cell-based

For `COc1ccc(OC)c(C(=O)COC(=O)CN2C(=O)NC3(CCCCC3C)C2=O)c1` (stereo unspecified), which EC50 (Insulin-degrading enzyme [1]) is on record?
Its EC50 is > 54.7 µM (inactive).

What about the EC50 (Insulin-degrading enzyme [2]) of the same compound?
The EC50 was > 54.7 µM (inactive).

What about the IC50 (HEK293 [3]) of the same compound?
Its IC50 is > 89.2 µM (inactive).

And the EC50 (HEK293 [4])?
Its EC50 is > 55.9 µM (inactive).

For `Cn1c(C(C#N)C2=C(Cl)C(=O)N(c3ccccc3)C2=O)nc2ccccc21` (stereo unspecified), which IC50 (Bcl-2-like protein 10) is on record?
The IC50 was 16.5 µM (active).

With `Cc1ccc(S(=O)(=O)Nc2ccc3c(c2)CC(=O)N([C@H](C)CO)C[C@H](C)[C@H](CN(C)S(=O)(=O)c2ccc(F)cc2)O3)cc1` as the compound, how does the AC50 [5] read?
Its AC50 is 4.36 µM (active).

And the AC50 (Paired box protein Pax-8)?
Its AC50 is 25.3 µM (active).

What about the AC50 [6] of the same compound?
The AC50 was 59.2 µM (active).

What about the AC50 [7] of the same compound?
The AC50 was 5.04 µM (active).

And the AC50 [8]?
The AC50 was 5.23 µM (active).

Which results are given for `CO/N=C/C(C#N)c1ncc(C(F)(F)F)cc1Cl` (stereo unspecified)?
IC50 [9]: > 64 µM (inactive); IC50 [10]: 4.92 µM (active); IC50 [11]: 6.73 µM (active); EC50 [12]: 5.81 µM (active)

For `Cc1ccc(OCC(=O)Nc2ccc(N3CCCC3)cc2)cc1C`, which IC50 [13] is on record?
The IC50 was 6.68 µM (active).

What about the IC50 (Bcl-2-like protein 10) of the same compound?
Its IC50 is 40.8 µM (active).

For `ClCCN1CCN(c2ccnc3cc(Cl)ccc23)CC1`, which AC50 [14] is on record?
The AC50 was 17.2 µM (active).

What about the IC50 [15] of the same compound?
The IC50 was > 20 µM (inactive).

With `COc1ccc(N2C(=O)/C(=C/Nc3ccccc3)c3ccccc3C2=O)cc1` as the compound, how does the IC50 (Prothrombin) read?
The IC50 was > 50 µM (not active).

Which CC50 [16] does the source give for `Cc1cc(C)nc(-n2nc(C)cc2Nc2ccccc2)n1` here?
The CC50 was > 20 µM (active).

What about the AC50 (INS1) of the same compound?
Its AC50 is 2.91 µM (active).

What about the IC50 (cells) of the same compound?
Its IC50 is 0.5 µM (active).

What about the CC50 [17] of the same compound?
The CC50 was > 40 µM (active).

And the IC50 (Prothrombin)?
The IC50 was > 50 µM (not active).

Which AC50 (Paired box protein Pax-8) does the source give for `C[C@@H]1CN([C@H](C)CO)C(=O)c2cc(NC(=O)Nc3ccc(C(F)(F)F)cc3)ccc2O[C@@H](C)CCCCO[C@@H]1CN(C)C(=O)NC1CCCCC1` here?
The AC50 was 4.46 µM (active).

And the AC50 [6]?
Its AC50 is 35.7 µM (active).

What about the AC50 [18] of the same compound?
The AC50 was 2.66 µM (active).

Which EC50 (Insulin-degrading enzyme [1]) does the source give for `Nc1cc(N)nc(SCCOc2ccccc2)n1` here?
Its EC50 is > 54.7 µM (inactive).

What about the EC50 (Insulin-degrading enzyme [2]) of the same compound?
The EC50 was > 54.7 µM (inactive).

What about the IC50 (HEK293 [3]) of the same compound?
The IC50 was > 89.2 µM (inactive).

What about the EC50 (HEK293 [4]) of the same compound?
Its EC50 is > 55.9 µM (inactive).
